We go through 6 molecules from publication PMC7751916, “Synthesis and bioactivities of 1-(4-hydroxyphenyl)-2-((heteroaryl)thio)ethanones as carbonic anhydrase I, II and acetylcholinesterase inhibitors” (Turkish Journal of Chemistry, 2020).

The structures appear in SMILES notation.

One assay deals with hCA I (Homo sapiens, UniProt P00915). As to the kind of experiment: CAs inhibition assay (esterase activity, p-nitrophenyl acetate). Type of assay: biochemical. The text has this:
Human CA isoforms (hCAI and hCAII) were purified by the Sepharose - 4B - L - tyrosine - sulfanilamide affinity segregation method as reported. […] Inhibitory effects of the compounds were investigated by measuring the esterase activity according to Verpoorte et al. as described in previous. […] All chemicals were purchased from Sigma-Aldrich Chemie GmbH.

A further assay has as its target hCA II (Homo sapiens, UniProt P00918). Described as above. Type of assay: biochemical. The method, then:
Human CA isoforms (hCAI and hCAII) were purified by the Sepharose - 4B - L - tyrosine - sulfanilamide affinity segregation method as reported. Bradford technique was used to measure protein concentrations at 595 nm. Inhibitory effects of the compounds were investigated by measuring the esterase activity according to Verpoorte et al. as described in previous. The hCA activity was determined by measuring the conversion of thep-nitrophenyl acetate substrate to p -nitro phenolate at 348 nm by the spectrophotometer (UV - VIS Spectrophotometer, UVmini-1240, Shimadzu Corporation, Kyoto, Japan). Acetazolamide (AZA) was used as a control drug. Lineweaver–Burk plot was used to calculate inhibition constants (Ki) of the compounds [33]. All chemicals were purchased from Sigma-Aldrich Chemie GmbH.

Sequence of hCA I (P00915 whole entry, canonical isoform): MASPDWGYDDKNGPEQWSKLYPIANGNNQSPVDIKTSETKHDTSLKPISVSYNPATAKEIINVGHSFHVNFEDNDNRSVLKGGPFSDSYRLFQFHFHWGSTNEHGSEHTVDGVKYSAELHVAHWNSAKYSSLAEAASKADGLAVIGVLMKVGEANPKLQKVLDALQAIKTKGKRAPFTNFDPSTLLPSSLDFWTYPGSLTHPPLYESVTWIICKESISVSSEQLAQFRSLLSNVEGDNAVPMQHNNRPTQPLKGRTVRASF

`O=C(CSc1nc2ccccc2s1)c1ccc(O)cc1` [Compound 1, 2-(Benzo[d]thiazol-2-ylthio)-1-(4-hydroxyphenyl)ethanone]: the IC50 against hCA I was 0.0354 µM; against hCA II it was 0.0294 µM. Moreover, the inhibitory constant (Ki) on hCA I was 0.0146 ± 0.00206 µM; at hCA II, 0.00876 ± 0.00084 µM. Besides, on hCA II (based on Ki values), the “fold more potent against hCAII than reference AZA” value is listed as 2.0 fold.

At hCA I, `O=C(CSc1nc2ccccc2o1)c1ccc(O)cc1` [Compound 2, 2-(Benzo[d]oxazol-2-ylthio)-1-(4-hydroxyphenyl)ethanone] gave a 50% inhibitory concentration (IC50) of 0.0328 µM and a Ki of 0.00861 ± 0.0009 µM. Further, the “fold more potent inhibitor against hCAI than reference AZA” value on hCA I (based on Ki values) is 2.5 fold. On hCA II, this molecule registered a concentration for half-maximal inhibition (IC50) of 0.0436 µM and a Ki of 0.0234 ± 0.00713 µM.

For the molecule `Cn1ccnc1SCC(=O)c1ccc(O)cc1` [Compound 3, 1-(4-Hydroxyphenyl)-2-((1-methyl-1H-imidazol-2-yl)thio)ethanone], at hCA I, inhibition was half-maximal at 0.0352 µM (IC50) and the Ki stood at 0.0178 ± 0.00208 µM. At hCA II, this molecule gave an IC50 of 0.0398 µM and a Ki of 0.0316 ± 0.00329 µM.

Take `Cc1nnc(SCC(=O)c2ccc(O)cc2)s1` [Compound 4, 1-(4-Hydroxyphenyl)-2-((5-methyl-1,3,4-thiadiazol-2-yl)thio)ethanone]: the figures for the concentration for half-maximal inhibition (IC50) against hCA I and against hCA II were 0.0481 µM and 0.0417 µM, respectively. Further, the figures for the inhibitory constant (Ki) on hCA I and on hCA II were 0.0138 ± 0.00247 µM and 0.0169 ± 0.00399 µM, respectively.

As to `Cn1cnnc1SCC(=O)c1ccc(O)cc1` [Compound 5, 1-(4-Hydroxyphenyl)-2-((4-methyl-4 H -1,2,4-triazol-3-yl)thio)ethanone], the half-inhibitory concentration (IC50) against hCA I came out at 0.0656 µM; on hCA II, 0.034 µM. Besides, the inhibition constant (Ki) amounted to 0.0426 ± 0.00759 µM at hCA I and 0.0143 ± 0.0051 µM on hCA II.

Turning to `Cn1nnnc1SCC(=O)c1ccc(O)cc1` [Compound 6, 1-(4-Hydroxyphenyl)-2-((1-methyl-1 H -tetrazol-5-yl)thio)ethanone], the IC50 against hCA I came to 0.0625 µM; on hCA II it was 0.0573 µM. The inhibitory constant (Ki) at hCA I worked out at 0.0144 ± 0.00371 µM; on hCA II, 0.0274 ± 0.0118 µM.

By IC50 is commonly meant the concentration that gives 50% inhibition. Read a low IC50 as greater potency in that assay. In general, Ki refers to the dissociation constant of the complex between target and ligand, obtained from inhibition or displacement.
